Measured values reported in article PMC7993833, “EDP-938, a novel nucleoprotein inhibitor of respiratory syncytial virus, demonstrates potent antiviral activities in vitro and in a non-human primate model” (PLoS Pathogens, 2021).
Entries after “also recorded” stand apart in the source; their conditions may differ. Read-outs that look alike come from different tables or passages of the source.

Legend:
[1] = Plasma drug exposure in African Green monkey study; type: in vivo, African Green monkeys (Chlorocebus); details: both sexes, in vivo, 100 mg/kg BID oral, read-out: mean plasma Ctrough
From the text: The African green monkey model was selected for EDP-938 in vivo studies for its higher level of viral replication versus cotton rats and BALB/c mice. […] In this previous trial, patients who achieved RSV-604 levels in excess of the EC90 experienced a 2.31 log reduction in viral load. […] The lack of antiviral activity observed with RSV-604 could be a function of relatively poor potency compared to EDP-938 (Fig 1) and/or insufficient tissue exposure. While in this study the animals were not sacrificed and thus the drug level in the lung could not be determined, plasma samples were taken at 12h after the last dose (Ctrough) to confirm drug exposure. […] It is reasonable to project that given the same dose or exposure EDP-938 should perform better than RSV-604 in RSV infected patients as well.
A study of EDP-938 and RSV-604 in the African Green monkey (AGM) animal model was performed by BIOQUAL, Inc (Rockville, Maryland). Methods were similar to those run in a study by Ispas et al.. Six (6) male and 6 female AGMs (Chlorocebus) of 4–5 kg were purchased from PrimGen (Hines, Illinois). Each animal was challenged with 2 x 10^5 PFU of RSV A2 viral inoculum (Virapur, San Diego, CA). Four animals (2 per sex) in each group were treated with EDP-938, RSV-604, or vehicle control (0.5% w/v methylcellulose). […]

[2] = test system: RSV-A Long; assay: RT-qPCR viral load assay, RSV-A Long in HEp-2 cells; type: cell-based; details: human respiratory syncytial virus
[3] = test system: recombinant RSV A2-line19F, N protein mutants; assay: microbe, parasite or virus in culture; details: human respiratory syncytial virus
[4] = test system: RSV replicon; parameters: method as in PMID 25451060; details: compared to AZ-27; cited from earlier work
[5] = test system: RSV A2; assay: RSV-infected African Green monkey model, viral load; type: in vivo, African Green monkeys (Chlorocebus); details: 100 mg/kg BID oral gavage; BAL
Description: African Green monkeys (AGMs) are permissive for human RSV infection and support a relatively higher level of viral replication compared to cotton rats and BALB/c mice. It has been previously validated as a non-human primate model for assessing in vivo efficacy of potential RSV vaccines and antiviral drugs. To evaluate the activity of EDP-938 in the AGM model, 4 animals each were treated with 100 mg/kg BID with EDP-938, RSV-604, or vehicle control via oral gavage starting 24 hours prior to RSV challenge and continuing for an additional 5 days. Samples were collected through bronchoalveolar lavage (BAL) and nasopharyngeal (NP) swab at various time points to determine viral load. […] Viral load in the NP swab samples was also determined.
A study of EDP-938 and RSV-604 in the African Green monkey (AGM) animal model was performed by BIOQUAL, Inc (Rockville, Maryland). Methods were similar to those run in a study by Ispas et al.. Six (6) male and 6 female AGMs (Chlorocebus) of 4–5 kg were purchased from PrimGen (Hines, Illinois). Each animal was challenged with 2 x 10^5 PFU of RSV A2 viral inoculum (Virapur, San Diego, CA). Four animals (2 per sex) in each group were treated with EDP-938, RSV-604, or vehicle control (0.5% w/v methylcellulose). The animals were dosed via oral gavage twice daily (every 12 hours), starting 24 hours prior to RSV challenge, and then continuing for an additional 5 days (6 total days of dose administration). Bronchoalveolar lavage (BAL) samples and nasopharyngeal (NP) swabs were collected for viral load determination.

[6] = test system: RSV; parameters: method as in PMID 31915807; details: patients who achieved RSV-604 levels in excess of the EC90; cited from earlier work
[7] = test system: RSV-A Long; assay: CPE assay (ATPlite), RSV-A Long in HEp-2 cells; type: cell-based; details: human respiratory syncytial virus
[8] = test system: recombinant RSV A2-line19F, N protein mutants
[9] = test system: RSV-B VR-955 EDP-938 resistant populations; assay: Susceptibility of EDP-938 resistant RSV-B VR-955 populations; type: cell-based, respiratory syncytial virus
[10] = test system: GS-5806- and AZ-27-resistant RSV; assay: Activity against GS-5806- and AZ-27-selected resistant viruses; type: cell-based, respiratory syncytial virus; details: own resistant virus
[11] = test system: RSV; assay: Single-round synchronized infection time-of-addition, RT-qPCR endpoint; type: cell-based, respiratory syncytial virus; details: HEp-2; MOI 3; cold-synchronized; 2x or 20x EC50; added 0-8 hpi; RT-qPCR at 24 hpi
Description: In order to help determine which step of the viral life cycle EDP-938 blocks multiple in vitro time-of-addition studies were performed. In the first study, EDP-938 was administered to cells infected with RSV-A Long at a MOI of 0.1 at 2 hours pre-infection (-2) or 2, 6, or 24 hours post-infection (hpi), and viral CPE evaluated 5 days later. […] A second time-of-addition study explored the ability of EDP-938 to protect not just a population experiencing a spreading infection, but individual cells already infected with RSV. Using a MOI of 3, which infects approximately 95% of all cells, virus was cold-adsorbed to the cells for 1 hour to synchronize infection before transfer to 37°C to induce fusion (marking the 0 hpi time point). Compound was added at times indicated and a 24 hpi RT-qPCR endpoint was employed to constrain viral replication cycle to a single complete cycle.
For single round infection synchronized infection 25,000 HEp-2 cpw seeded 1-day pre-infection. Plates brought to 4°C, viral infection at 3 MOI calculated for 30,000 cpw incubated at 4°C 1hr. Compound added to 0h plate and plates moved to 37°C. Compound added at 2h, 4h, 6h, and 8h post-incubation (when plates moved to 37°C) to appropriate plates. 24 hpi viral copies measured with RT-qPCR as described above.

[12] = test system: RSV; parameters: method as in PMID 19707346; details: premature infants; monthly injection; cited from earlier work
[13] = HEp-2, recombinant RSV Wild-type (WT), HEp2

O=C(Nc1ccccc1F)N[C@H]1N=C(c2ccccc2)c2ccccc2NC1=O [RSV-604]
concentration at 12 h after the last dose [1]: 637 nM | EC50 ([2]; HEp-2, 120 h): 1.98 µM | EC50 ([2]; HEp-2, read-out: EC50, inhibition of viral replication): ~2 µM | EC50 ([3]; HEp-2, recombinant RSV N K107N): 1810 nM | EC50 ([3]; HEp-2, recombinant RSV N K136R): 4300 nM | EC50 ([3]; HEp-2, recombinant RSV N L139I): 9550 nM | EC50 ([3]; HEp-2, recombinant RSV N M109I): 514 ± 159 nM | EC50 ([3]; HEp-2, recombinant RSV N M109K): 2870 nM | EC50 ([3]; HEp-2, recombinant RSV N M109T): 1860 nM | EC50 ([3]; HEp-2, recombinant RSV N N105D): 2700 nM | EC50 ([3]; HEp-2, recombinant RSV N S134T): 2480 nM | EC50 ([3]; HEp-2, recombinant RSV N V90A): 1420 nM | EC50 [3, 13]: 1150 nM | effect in a replicon assay [4]: minimal effect | effect on RSV viral load vs vehicle control [5]: did not result in significant RSV viral load reduction; also recorded: unable to reduce viral load in a statistically significant manner | reduction in viral load [6]: 2.31 log | EC50 ([7]; HEp-2, 120 h): 1.43 µM | EC50 ([7]; HEp-2, read-out: EC50, RSV-A Long-induced CPE): ~1.4 µM | EC50 Fold Change vs. WT ([8]; recombinant RSV N K107N): 1.6 fold | EC50 Fold Change vs. WT ([8]; recombinant RSV N K136R): 3.7 fold | EC50 Fold Change vs. WT ([8]; recombinant RSV N L139I): 8.3 fold | EC50 Fold Change vs. WT ([8]; recombinant RSV N M109I): 0.4 fold | EC50 Fold Change vs. WT ([8]; recombinant RSV N M109K): 2.5 fold | EC50 Fold Change vs. WT ([8]; recombinant RSV N M109T): 1.6 fold | EC50 Fold Change vs. WT ([8]; recombinant RSV N N105D): 2.3 fold | EC50 Fold Change vs. WT ([8]; recombinant RSV N S134T): 2.1 fold | EC50 Fold Change vs. WT ([8]; recombinant RSV N V90A): 1.2 fold | EC50 Fold Change vs. WT ([8]; recombinant RSV Wild-type (WT)): 1.0 fold | EC50 Fold Change vs. WT ([9]; RSV-B VR-955 Wild-Type): 1 fold

O=C(NC1CC1)c1cc2c(s1)-c1ccccc1N(C(=O)c1ccc(NC(=O)c3cccnc3N3CCC4(CC3)COC4)cc1)CC2 [AZ-27]
activity against the virus selected for resistance with the same compound [10]: lost all ability to inhibit their resistant viruses

Cc1cn2nc([C@@H]3CCCCN3C(=O)c3cc(Cl)ccc3NS(C)(=O)=O)cc2nc1N1CC[C@H](N)C1 [GS-5806]
EC50 ([3]; HEp-2, recombinant RSV N K107N): 0.09 ± 0.07 nM | EC50 ([3]; HEp-2, recombinant RSV N K136R): 0.54 ± 0.34 nM | EC50 ([3]; HEp-2, recombinant RSV N L139I): 0.17 ± 0.15 nM | EC50 ([3]; HEp-2, recombinant RSV N M109I): 0.11 ± 0.09 nM | EC50 ([3]; HEp-2, recombinant RSV N M109K): 0.06 ± 0.05 nM | EC50 ([3]; HEp-2, recombinant RSV N M109T): 0.21 nM | EC50 ([3]; HEp-2, recombinant RSV N N105D): 0.14 ± 0.2 nM | EC50 ([3]; HEp-2, recombinant RSV N S134T): 0.23 ± 0.3 nM | EC50 ([3]; HEp-2, recombinant RSV N V90A): 0.13 nM | EC50 [3, 13]: 0.13 ± 0.12 nM | activity against the virus selected for resistance with the same compound [10]: lost all ability to inhibit their resistant viruses | EC50 Fold Change vs. WT ([8]; recombinant RSV N K107N): 0.7 fold | EC50 Fold Change vs. WT ([8]; recombinant RSV N K136R): 4.2 fold | EC50 Fold Change vs. WT ([8]; recombinant RSV N L139I): 1.3 fold | EC50 Fold Change vs. WT ([8]; recombinant RSV N M109I): 0.8 fold | EC50 Fold Change vs. WT ([8]; recombinant RSV N M109K): 0.5 fold | EC50 Fold Change vs. WT ([8]; recombinant RSV N M109T): 1.6 fold | EC50 Fold Change vs. WT ([8]; recombinant RSV N N105D): 1.1 fold | EC50 Fold Change vs. WT ([8]; recombinant RSV N S134T): 1.8 fold | EC50 Fold Change vs. WT ([8]; recombinant RSV N V90A): 1.0 fold | EC50 Fold Change vs. WT ([8]; recombinant RSV Wild-type (WT)): 1.0 fold | EC50 Fold Change vs. WT ([9]; RSV-B VR-955 Population 1, N: M109K, L139Q (dual WT/mutant population)): 0.2 fold | EC50 Fold Change vs. WT ([9]; RSV-B VR-955 Population 2, N: M109T): 0.2 fold | EC50 Fold Change vs. WT ([9]; RSV-B VR-955 Wild-Type): 1 fold | inhibition of viral RNA production by time of addition [11]: reduced when added at 0 hpi and completely lost when added at 8 hpi

palivizumab: monthly injectable monoclonal antibody against RSV
relative reduction in RSV-associated hospitalizations [12]: approximately 55%
